Assay results taken from patent US20100285957A1, “THIAZOLYLOXYPHENYLAMIDINES OR THIADIAZOLYLOXYPHENYLAMIDINES AND THEIR USE AS FUNGICIDES” (Bayer CropScience AG, priority 2007, published 2010).

Columns and labels:
[1] = test system: Cochliobolus miyabeanus; assay: Cochliobolus test (rice)/protective; type: in vivo; settings: 250 ppm active substance, protective, evaluation 4 days after inoculation
Method: Cochliobolus Test (Rice)/Protective
(§1) To prepare a suitable active substance composition, 1 part by weight of active substance is mixed with the given amounts of solvent and emulsifier and the concentrate is diluted to the desired concentration using water.
(§2) For the testing of protective effectiveness, young plants are sprayed with the active substance composition in the application rate given. After the spray coating has been dried on, the plants are inoculated with an aqueous suspension of the spores of Cochliobolus miyabeanus and then remain in an incubation chamber at approximately 25° C. and 100% relative humidity for 1 day.
Evaluation is carried out 4 days after the inoculation. In this connection, 0% means a degree of effectiveness corresponding to that of the control, while a degree of effectiveness of 100% means that no infestation is observed.

[2] = test system: Uromyces appendiculatus; assay: Uromyces test (beans)/protective; type: in vivo; settings: 240 h, 100 ppm active substance, protective, evaluation 10 days after inoculation, read-out: degree of effectiveness
How it was run: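 Young bean plants were sprayed with the formulated compound at the stated application rate, dried, then inoculated with U. appendiculatus spores. They were held 1 day at ~20 °C and 100% RH, then in a greenhouse at ~21 °C and ~90% RH. Efficacy was scored 10 days post-inoculation: 0% equals the control, 100% means no infestation.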

[3] = test system: Pyrenophora teres; assay: Pyrenophora teres test (barley)/protective; type: in vivo; settings: 500 ppm active substance, protective, evaluation 7-9 days after inoculation, read-out: degree of effectiveness
[4] = test system: Phakopsora pachyrhizi; assay: Phakopsora test (soya)/protective; type: in vivo; settings: 264 h, 100 ppm active substance, protective, evaluation 11 days after inoculation, read-out: degree of effectiveness
Method: Phakopsora Test (Soya)/Protective
as §1
as §2, with “Phakopsora pachyrhizi” for “Cochliobolus miyabeanus”, “20°” for “25°”, “80%” for “100%”
Evaluation is carried out 11 days after the inoculation. In this connection, 0% means a degree of effectiveness corresponding to that of the control, while a degree of effectiveness of 100% means that no infestation is observed.

[5] = physchem; settings: pH 2.3
[6] = test system: Alternaria solani; assay: Alternaria test (tomato)/protective; type: in vivo; settings: 168 h, 500 ppm active substance, protective, evaluation 7 days after inoculation, read-out: degree of effectiveness
How it was run: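 Young tomato plants sprayed with emulsified active substance at the stated rate, inoculated 1 day later with Alternaria solani spores. Held 24 h at 100% RH and 20 °C, then 96% RH, 20 °C. Scored 7 days post-inoculation; 0% = untreated control, 100% = no infestation.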

[7] = test system: Sphaerotheca fuliginea; assay: Sphaerotheca test (cucumber)/protective; type: in vivo; settings: Podosphaera fuliginea, 168 h, 100 ppm active substance, protective, evaluation 7 days after inoculation, read-out: degree of effectiveness
How it was run: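 Young cucumber plants were sprayed protectively with the formulated compound at the stated rate, dried, then inoculated with S. fuliginea spores. Kept in greenhouse at ~23° C. and ~70% relative humidity; efficacy scored 7 days post-inoculation (0% = untreated control, 100% = no infestation).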

CCN(C)C=Nc1cc(C)c(Oc2nc(C3(C)CC3(Cl)Cl)ns2)cc1C (stereo not shown) [Compound 25, N′-(4-{[3-(2,2-Dichloro-1-methylcyclopropyl)-1,2,4-thiadiazol-5-yl]oxy}-2,5-dimethylphenyl)-N-ethyl-N-methylimidoformamide]
degree of effectiveness [1]: ≥ 80%
pest or weed control at 100 ppm [2]: ≥ 70%
pest or weed control at 500 ppm [3]: ≥ 70%
pest or weed control at 100 ppm [4]: ≥ 80%
logP [5]: 2.03
pest or weed control at 500 ppm [6]: ≥ 70%
pest or weed control at 100 ppm [7]: ≥ 70%
